Key:
[1] = tested on: Nippostrongylus brasiliensis; assay: Anthelmintic activity against Nippostrongylus brasiliensis; format: functional
HCT-15 = assay: Cytotoxicity against HCT15 cell line by SRB assay; format: functional, Homo sapiens

Compound | LC50 [1] | IG50 (HCT-15)
C=CCC1COC(C(C)(C)C(C/C=C\CNC(=O)OC)OC(C)=O)=N1 (stereo not drawn) | 40 µM | 430 µM
C=CC/C=C\C[C@@H]1CSC(C(C)(C)C(O)C/C=C\CNC(=O)OC)=N1 (stereo partly drawn) |  | 13 µM
C=CC/C=C\C[C@@H]1CSC(C(C)(C)C(C/C=C\CNC(=O)OC)OC(C)=O)=N1 (stereo partly drawn) | > 300 µM | 
C=CC/C=C\C[C@@H]1COC(C(C)(C)C(C/C=C\CNC(=O)OC)OC(C)=O)=N1 (stereo partly drawn) | 40 µM | 150 µM
CCCSc1ccc2[nH]c(NC(=O)OC)nc2c1 [ALBENDAZOLE] | 0.34 µM | 
CO[C@@]12[C@H](COC(N)=O)C3=C(C(=O)C(C)=C(N)C3=O)N1C[C@@H]1N[C@@H]12 [MITOMYCIN] |  | 1.6 µM

— ChEMBL document CHEMBL1139002, “Synthesis and biological evaluation of simplified mycothiazole analogues” (2006)
